Test results reported in patent US9896445B2, “Heterocyclic inhibitors of ERK1 and ERK2 and their use in the treatment of cancer” (Asana Biosciences, LLC, priority 2015, dated 2018).

Columns and labels:
ERK2 = target: T1, ERK2 (Homo sapiens, UniProt P28482); assay: ERK2 HTRF (biochemical) assay; conditions: HTRF
T1 construct: purchased Jubilant Biosys
Description: (§1) ERK1 and ERK2 HTRF (Biochemical) Assays
These assays employed a homogeneous time resolved fluorescence (HTRF) technique. The compounds were serially diluted by half-log with concentrations ranging from 0.0005 to 10 uM in the assay buffer (50 mM Tris pH=7.5, 1 mM EGTA, 2 mM DTT, 10 mM MgCl2, 0.1% Tween-20) and 20 uL of substrate-ATP mix [1 uM Biotin-LC-Myelin Basic Protein (MBP) derivatized Peptide (Anaspec)-24 uM ATP (Sigma)] was added to each well of the assay plate. Then 10 uL of enzyme mix [25 nM ERK1 or ERK2 (Jubilant Biosys) in assay buffer] was added to each well. The plate was incubated at room temperature for 60 min with shaking. The HTRF mix [625 nM LANCE® Ultra Europium-anti-phospho-MBP (Perkin Elmer) and 2 nM Phycolink® Streptavidin-Allophycocyanin (SA-APC) (Prozyme) in HTRF buffer (50 mM Tris-HCl pH=7.5, 100 mM NaCl, 0.1% BSA, 0.05% Tween20, 0.5 mM EDTA)] was prepared and 75 uL of this mix was added to the HTRF plate. After incubation for 60 min at room temperature, 10 uL of the reaction mixture was transferred to the HTRF assay plate and incubated for 45 min at room temperature with shaking. Plate was read using Pherastar in HTRF mode (excitation 337 nm, emission 665 & 620 nm). The IC50 values (half maximal inhibitory concentration values) were subsequently determined using a sigmoidal dose-response curve (variable slope) in GraphPad Prism® 5 software.

ERK1 = target: T2, ERK1 (Homo sapiens, UniProt P27361); assay: ERK1 HTRF (biochemical) assay; conditions: HTRF
T2 construct: purchased Jubilant Biosys
Description: as §1
These assays employed a homogeneous time resolved fluorescence (HTRF) technique. […] The plate was incubated at room temperature for 60 min with shaking. […] The IC50 values (half maximal inhibitory concentration values) were subsequently determined using a sigmoidal dose-response curve (variable slope) in GraphPad Prism® 5 software.

T1 sequence (P28482 whole entry): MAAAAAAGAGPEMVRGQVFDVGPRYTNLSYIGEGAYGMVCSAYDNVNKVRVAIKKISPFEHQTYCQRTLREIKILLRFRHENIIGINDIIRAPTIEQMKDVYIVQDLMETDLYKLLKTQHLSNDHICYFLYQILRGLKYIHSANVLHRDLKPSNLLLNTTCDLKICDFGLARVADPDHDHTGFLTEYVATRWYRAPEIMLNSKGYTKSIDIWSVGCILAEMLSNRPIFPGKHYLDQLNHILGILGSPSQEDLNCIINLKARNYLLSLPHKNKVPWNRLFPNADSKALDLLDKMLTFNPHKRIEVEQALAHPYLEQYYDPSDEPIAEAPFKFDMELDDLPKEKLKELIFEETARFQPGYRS
T2 sequence (P27361 whole entry): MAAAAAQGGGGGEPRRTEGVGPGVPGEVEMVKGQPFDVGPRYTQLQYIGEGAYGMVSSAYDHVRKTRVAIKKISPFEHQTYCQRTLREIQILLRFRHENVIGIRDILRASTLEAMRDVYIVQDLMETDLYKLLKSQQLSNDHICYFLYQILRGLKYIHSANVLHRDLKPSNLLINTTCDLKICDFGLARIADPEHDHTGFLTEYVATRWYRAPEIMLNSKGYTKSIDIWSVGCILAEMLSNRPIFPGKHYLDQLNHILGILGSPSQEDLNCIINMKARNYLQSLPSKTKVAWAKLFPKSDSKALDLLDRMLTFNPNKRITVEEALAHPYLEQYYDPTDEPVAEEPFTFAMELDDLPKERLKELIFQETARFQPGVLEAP

| IC50 (ERK2) [nM] | IC50 (ERK1) [nM] | Compound |
| --- | --- | --- |
| ≤ 50 | < 50 | O=C(Nc1cnn(-c2nc(NC3CC3)ncc2F)c1)N[C@H](CO)c1cccc(Cl)c1 [Compound 30, (S)-1-(1-(3-chlorophenyl)-2-hydroxyethyl)-3-(1-(2-(cyclopropyl-amino)-5-fluoro-pyrimidin-4-yl)-1H-pyrazol-4-yl)urea] |
| ≤ 50 | < 50 | Cc1cnc(Nc2ccc(F)cc2Cl)nc1-n1ccc(C(=O)NC(CO)c2cccc(Cl)c2)c1 (stereo not drawn) [Compound 31, 1-(2-((2-chloro-4-fluorophenyl)amino)-5-methyl-pyrimidin-4-yl)-N-(1-(3-chlorophenyl)-2-hydroxyethyl)-1H-pyrrole-3-carboxamide] |
| ≤ 50 | < 50 | Cc1cnc(Nc2ccc(F)cc2Cl)nc1-n1ccc(C(=O)NC(CO)c2ccccc2)c1 (stereo not drawn) [Compound 32, 1-(2-((2-chloro-4-fluorophenyl)amino)-5-methyl-pyrimidin-4-yl)-N-(2-hydroxy-1-phenylethyl)-1H-pyrrole-3-carboxamide] |
| ≤ 50 | < 50 | Cc1cnc(Nc2ccc(F)cc2Cl)nc1-n1cc(C(=O)N[C@H](CO)c2cccc(Cl)c2)cn1 [Compound 35, (S)-1-(2-((2-chloro-4-fluoro-phenyl)amino)-5-methylpyrimidin-4-yl)-N-(1-(3-chloro-phenyl)-2-hydroxy-ethyl)-1H-pyrazole-4-carboxamide] |
| ≤ 50 | 100 to 500 | Cc1cnc(Nc2ccc(F)cc2Cl)nc1-n1cc(NC(=O)NC(CO)c2cccc(Cl)c2)cn1 (stereo not drawn) [Compound 36, 1-(1-(2-((2-chloro-4-fluorophenyl)-amino)-5-methyl-pyrimidin-4-yl)-1H-pyrazol-4-yl)-3-(1-(3-chlorophenyl)-2-hydroxyethyl)urea] |
| ≤ 50 | 100 to 500 | Cc1cnc(Nc2ccc3c(c2)OCO3)nc1-n1cc(NC(=O)NC(CO)c2cccc(Cl)c2)cn1 (stereo not drawn) [Compound 37, 1-(1-(2-(benzo[d][1,3]dioxol-5-ylamino)-5-methylpyrimidin-4-yl)-1H-pyrazol-4-yl)-3-(1-(3-chlorophenyl)-2-hydroxyethyl)urea] |
| ≤ 50 | < 50 | C#Cc1cccc(Nc2nccc(-n3cc(NC(=O)N[C@H](CO)c4cccc(Cl)c4)cn3)n2)c1 [Compound 38, (S)-1-(1-(3-chlorophenyl)-2-hydroxyethyl)-3-(1-(2-((3-ethynyl-phenyl)amino)pyrimidin-4-yl)-1H-pyrazol-4-yl)urea] |
| ≤ 50 | 50 to 100 | Cc1cnc(NC2CC2)nc1-n1cc(C(=O)N[C@H](CO)c2cccc(Cl)c2)cn1 [Compound 39, (S)-N-(1-(3-chlorophenyl)-2-hydroxyethyl)-1-(2-(cyclopropylamino)-5-methylpyrimidin-4-yl)-1H-pyrazole-4-carboxamide] |
| 50 to 100 | 50 to 100 | Cc1cnc(NC2CC2)nc1-n1cc(C(=O)NC(CO)c2cccc(Cl)c2)cn1 (stereo not drawn) [Compound 40, N-(1-(3-chlorophenyl)-2-hydroxyethyl)-1-(2-(cyclopropyl-amino)-5-methylpyrimidin-4-yl)-1H-pyrazole-4-carboxamide] |
| ≤ 50 | 100 to 500 | Cc1cnc(Nc2ccc3c(c2)OCO3)nc1-n1cc(C(=O)NC(CO)c2cccc(Cl)c2)cn1 (stereo not drawn) [Compound 41, 1-(2-(benzo[d][1,3]dioxol-5-ylamino)-5-methylpyrimidin-4-yl)-N-(1-(3-chloro-phenyl)-2-hydroxy-ethyl)-1H-pyrazole-4-carboxamide] |
| ≤ 50 | < 50 | Cc1cnc(Nc2ccc3c(c2)OCO3)nc1-n1ccc(C(=O)NC(CO)c2cccc(Cl)c2)c1 (stereo not drawn) [Compound 42, 1-(2-(benzo[d][1,3]dioxol-5-ylamino)-5-methylpyrimidin-4-yl)-N-(1-(3-chloro-phenyl)-2-hydroxy-ethyl)-1H-pyrrole-3-carboxamide] |
| > 2500 | > 2500 | Cc1cnc(Nc2ccccc2Cl)nc1-n1cc(NC(=O)NC(CO)c2cccc(Cl)c2)cn1 (stereo not drawn) [Compound 43, 1-(1-(3-chlorophenyl)-2-hydroxyethyl)-3-(1-(2-((2-chloro-phenyl)amino)-5-methylpyrimidin-4-yl)-1H-pyrazol-4-yl)urea] |
| ≤ 50 | 50 to 100 | Cc1cnc(Nc2ccc3c(c2)OCO3)nc1-n1cc(NC(=O)N[C@H](CO)c2cccc(Cl)c2)cn1 [Compound 44, (S)-1-(1-(2-(benzo[d][1,3]dioxol-5-ylamino)-5-methylpyrimidin-4-yl)-1H-pyrazol-4-yl)-3-(1-(3-chloro-phenyl)-2-hydroxy-ethyl)urea] |
| ≤ 50 | < 50 | Cc1cnc(Nc2ccc(F)cc2Cl)nc1-n1cc(C(=O)NC(CO)c2cccc(Cl)c2)cn1 (stereo not drawn) [Compound 45, 1-(2-((2-chloro-4-fluorophenyl)amino)-5-methyl-pyrimidin-4-yl)-N-(1-(3-chlorophenyl)-2-hydroxyethyl)-1H-pyrazole-4-carboxamide] |
| ≤ 50 | < 50 | O=C(NC(CO)c1cccc(Cl)c1)c1ccn(-c2ccnc(Nc3ccccc3)c2)c1 (stereo not drawn) [Compound 46, N-(1-(3-chloro-phenyl)-2-hydroxy-ethyl)-1-(2-(phenyl-amino)pyridin-4-yl)-1H-pyrrole-3-carboxamide] |
| ≤ 50 | < 50 | Cc1cnc(Nc2ccc3c(c2)OCO3)nc1-n1ccc(C(=O)NC(CO)c2ccccc2)c1 (stereo not drawn) [Compound 47, 1-(2-(benzo[d][1,3]dioxol-5-ylamino)-5-methylpyrimidin-4-yl)-N-(2-hydroxy-1-phenylethyl)-1H-pyrrole-3-carboxamide] |
| ≤ 50 | < 50 | Cc1cnc(Nc2ccc3c(c2)OCO3)nc1-n1cnc(C(=O)N[C@H](CO)c2cccc(Cl)c2)c1 [Compound 48, (S)-1-(2-(benzo[d][1,3]dioxol-5-ylamino)-5-methylpyrimidin-4-yl)-N-(1-(3-chloro-phenyl)-2-hydroxy-ethyl)-1H-imidazole-4-carboxamide] |
| 50 to 100 | 100 to 500 | Cc1cnc(Nc2ccc3c(c2)OCO3)nc1-n1cc(NC(=O)N[C@@H](CO)c2cccc(Cl)c2)cn1 [Compound 51, (R)-1-(1-(2-(benzo[d][1,3]dioxol-5-ylamino)-5-methylpyrimidin-4-yl)-1H-pyrazol-4-yl)-3-(1-(3-chloro-phenyl)-2-hydroxy-ethyl)urea] |
| 100 to 500 | 100 to 500 | O=C(N[C@H](CO)c1cccc(Cl)c1)c1cnn(-c2ccnc(Nc3ccccc3)n2)c1 [Compound 53, (S)-N-(1-(3-chlorophenyl)-2-hydroxyethyl)-1-(2-(phenylamino)pyrimidin-4-yl)-1H-pyrazole-4-carboxamide] |
| ≤ 50 | 50 to 100 | Cc1cnc(Nc2ccc(F)cc2Cl)nc1-n1cc(C(=O)NC(CN)c2ccccc2)cn1 (stereo not drawn) [Compound 54, N-(2-amino-1-phenylethyl)-1-(2-((2-chloro-4-fluoro-phenyl)amino)-5-methylpyrimidin-4-yl)-1H-pyrazole-4-carboxamide] |
| ≤ 50 | < 50 | Cc1cnc(Nc2ccc(F)cc2Cl)nc1-n1ccc(C(=O)N[C@H](CO)c2cccc(Cl)c2)c1 [Compound 57, (S)-1-(2-((2-chloro-4-fluorophenyl)-amino)-5-methyl-pyrimidin-4-yl)-N-(1-(3-chlorophenyl)-2-hydroxyethyl)-1H-pyrrole-3-carboxamide] |
